From patent US8163909B2, “Substituted hydroxyethyl amine compounds as beta-secretase modulators and methods of use” (Amgen Inc., priority 2007, dated 2012)
Like-named read-outs stand apart in the source and are kept apart here.

Tests used:
[1] = molecular target: CYP3A4 (CYP3A) (Homo sapiens, UniProt P08684); assay: in vitro; conditions: microsomes, pH 7.4;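 further: inhibition of CYP3A-mediated 1-hydroxymidazolam formation after 10 min incubation with NADPH, quantified by HPLC MS relative to metabolite produced without test compound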
Chain of CYP3A4 (CYP3A) (P08684 2-503): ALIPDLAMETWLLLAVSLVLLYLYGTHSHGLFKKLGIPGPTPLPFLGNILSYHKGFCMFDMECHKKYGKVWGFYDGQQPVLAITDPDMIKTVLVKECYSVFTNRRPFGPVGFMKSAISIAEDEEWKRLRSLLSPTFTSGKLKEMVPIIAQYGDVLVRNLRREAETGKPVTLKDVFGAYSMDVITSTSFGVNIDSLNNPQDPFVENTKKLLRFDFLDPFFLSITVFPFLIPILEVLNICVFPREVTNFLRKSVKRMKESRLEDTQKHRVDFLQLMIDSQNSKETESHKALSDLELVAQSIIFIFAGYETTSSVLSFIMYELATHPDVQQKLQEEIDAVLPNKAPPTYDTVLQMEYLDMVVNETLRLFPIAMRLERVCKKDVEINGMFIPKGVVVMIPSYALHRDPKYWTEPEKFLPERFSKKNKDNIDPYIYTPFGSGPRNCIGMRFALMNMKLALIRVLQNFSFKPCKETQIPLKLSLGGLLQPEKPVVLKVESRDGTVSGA

[2] = Microsomal stability assay, human liver microsomes;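 further: pooled human liver microsomes at 0.25 mg/mL with 1 µM compound and NADPH at 37 °C, pH 7.4, for 30 min, unchanged parent quantified by LC-MS/MS against the 0 min sample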
[3] = test system: Abeta peptide; assay: In vivo inhibition of beta-secretase (reduction of Abeta peptide in brain and cerebrospinal fluid); parameters: species or system rat; conditions: Rattus norvegicus, po, 4 h;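 further: abeta peptide quantified by sandwich ELISA with electrochemiluminescence readout in rat brain supernatant or CSF, relative to vehicle-dosed control animals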
[4] = molecular target: Beta Secretase enzyme (BACE) (Homo sapiens, UniProt P56817); assay: In vitro enzymatic BACE FRET (fluorescence resonance energy transfer) assay; format: biochemical;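 further: fluorescence read after 1 h with 50 nM quenched peptide substrate spanning the BACE cleavage site, in pH 4.2 acetate buffer containing 10% DMSO and nonionic detergent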
Chain of Beta Secretase enzyme (BACE) (P56817 46-501): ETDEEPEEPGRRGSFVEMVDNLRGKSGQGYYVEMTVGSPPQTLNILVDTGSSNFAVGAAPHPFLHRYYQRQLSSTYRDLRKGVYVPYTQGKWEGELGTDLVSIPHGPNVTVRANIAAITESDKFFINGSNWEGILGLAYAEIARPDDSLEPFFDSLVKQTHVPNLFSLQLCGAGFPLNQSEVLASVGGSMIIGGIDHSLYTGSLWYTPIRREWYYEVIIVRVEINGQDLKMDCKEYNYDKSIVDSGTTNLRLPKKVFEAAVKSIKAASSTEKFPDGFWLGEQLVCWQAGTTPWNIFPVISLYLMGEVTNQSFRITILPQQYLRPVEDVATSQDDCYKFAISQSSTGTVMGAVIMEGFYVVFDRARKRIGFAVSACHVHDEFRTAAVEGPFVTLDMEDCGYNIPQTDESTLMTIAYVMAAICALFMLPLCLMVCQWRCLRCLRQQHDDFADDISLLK

[5] = test system: Aβ40 in conditioned medium of cells stably expressing Amyloid Precursor Protein (APP); assay: In vitro BACE cell-based assay (Aβ40 in conditioned medium, sandwich ELISA); conditions: Homo sapiens;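 further: compounds added as a dilution series, secreted peptide quantified by europium time-resolved fluorescence readout, potency fitted from percent of control versus compound concentration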
[6] = Microsomal stability assay, rat liver microsomes;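 further: rat liver microsomes (0.25 mg/mL) with about 1 µM compound plus 1 mM NADPH, pH 7.4, 37 °C for 30 min, parent left measured by LC-MS/MS against 0 min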
[7] = molecular target: CYP2D6 (Homo sapiens, UniProt P10635); assay: CYP2D6 inhibition assay (bufuralol, pooled human liver microsomes)
Chain of CYP2D6 (P10635 whole entry): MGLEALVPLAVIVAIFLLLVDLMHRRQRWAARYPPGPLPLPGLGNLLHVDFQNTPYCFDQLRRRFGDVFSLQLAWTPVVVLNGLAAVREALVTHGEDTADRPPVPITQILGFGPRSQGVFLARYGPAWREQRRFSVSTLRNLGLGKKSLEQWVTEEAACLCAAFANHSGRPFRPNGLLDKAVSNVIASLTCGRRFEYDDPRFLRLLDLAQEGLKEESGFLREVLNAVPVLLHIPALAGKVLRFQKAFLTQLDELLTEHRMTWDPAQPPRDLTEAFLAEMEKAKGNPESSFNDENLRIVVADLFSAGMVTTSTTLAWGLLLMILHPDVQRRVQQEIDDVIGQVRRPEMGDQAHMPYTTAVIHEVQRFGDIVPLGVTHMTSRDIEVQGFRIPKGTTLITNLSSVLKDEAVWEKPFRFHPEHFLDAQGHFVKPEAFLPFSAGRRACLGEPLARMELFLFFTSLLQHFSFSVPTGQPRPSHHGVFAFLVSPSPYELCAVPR

[8] = rat cerebrospinal fluid, orally administered at 30 mg/kg dose, measured after 4 hours, read-out: percent reduction of abeta peptide in the cerebrospinal fluid of the rat
[9] = 2D6 IC50, CYP enzyme inhibition
[10] = rat brain, orally administered at 30 mg/kg dose, measured after 4 hours, read-out: percent reduction of abeta peptide in the brain of the rat
[11] = BACE enzyme assay, read-out: BACE1 FRET assay
[12] = HEK293, HEK cells, read-out: HEK cell assay
[13] = 2D6 IC50 (uM), CYP enzyme inhibition
[14] = read-out: BACE1 FRET assay (IC50)
[15] = HEK293, HEK cells, read-out: HEK cell assay (IC50)
[16] = BACE enzyme assay, IC50's in uM, read-out: BACE1 FRET assay
[17] = HEK293, HEK cell-based assay, IC50's in uM, read-out: HEK cell assay
[18] = HEK293, cell-based assay, HEK cells, IC50's in uM, read-out: HEK cell assay

SMILES	IC50 [1] [nM]	HLM ([2]; human liver microsomal data) [µL/min/mg]	inhibition in vivo at 30 mg/kg [3, 8] [%]	RLM ([6]; rat liver microsomal data) [µL/min/mg]	IC50 [7, 9] [µM]	IC50 [4, 16] [µM]	IC50 [5, 18] [µM]	further results
COCC(=O)N[C@@H](Cc1ccc(F)cc1)[C@H](O)CN[C@H]1CC2(CCC2)Oc2c1cc(CC(C)C)cc2-n1ccnc1 [Example 478]	100	24	10 to 80	157	2.2			IC50 ([4]; Table 2, read-out: BACE1 FRET assay): 0.056 µM; IC50 ([5]; HEK293, Table 2, HEK cells, read-out: HEK cell assay): 0.068 µM
COCC(=O)N[C@@H](Cc1cc(F)cc(F)c1)[C@H](O)CN[C@H]1CC2(CCC2)Oc2c(-c3ccncc3)cc(CC(C)(C)C)cc21 [Example 488]	100	31	10 to 80	82				inhibition in vivo at 30 mg/kg [3, 10]: 5 to 80%; IC50 [4, 11]: 0.009 µM; IC50 [5, 12]: 0.01 µM; IC50 [7, 13]: 1.6 µM
COCC(=O)N[C@@H](Cc1cccc(F)c1)[C@H](O)CN[C@H]1CC2(CCC2)Oc2c1cc(CC(C)(C)C)nc2-n1ccnc1 [Example 504]	100	16	10 to 80	87				IC50 [4, 11]: 0.014 µM; IC50 [5, 12]: 0.028 µM; IC50 [7, 13]: 2.3 µM
CC(=O)N[C@@H](Cc1cccc(F)c1)[C@H](O)CN[C@H]1CC2(CCC2)Oc2c1cc(CC(C)(C)C)nc2-n1ccnc1 [Example 506]	100	14	10 to 80	61				IC50 [4, 11]: 0.021 µM; IC50 [5, 12]: 0.02 µM; IC50 [7, 13]: 2.2 µM
COCC(=O)N[C@@H](Cc1cc(F)cc(F)c1)[C@H](O)CN[C@H]1CC2(CCC2)Oc2c1cc(CC(C)(C)C)nc2-c1cncn1C [Example 597]			10 to 80					HLM ([2]; human liver microsomes): 22 µL/min/mg; IC50 [4, 14]: 0.034 µM; IC50 [5, 15]: 0.011 µM; RLM ([6]; rat liver microsomes): 35 µL/min/mg; IC50 ([7]; 2D6 IC50, CYP2D6 inhibition): 2.8 µM
CC(C)Cc1cnc2c(c1)[C@@H](NC[C@@H](O)[C@H](Cc1ccc3c(c1)OCO3)NC(=O)[C@@H](C)F)CC1(CCC1)O2 [Example 600]			10 to 80					inhibition in vivo at 30 mg/kg [3, 10]: 5 to 80%; IC50 [4, 14]: 0.03 µM; IC50 [5, 15]: 0.035 µM
CO[C@H](C)C(=O)N[C@@H](Cc1cccc(C#N)c1)[C@H](O)CN[C@H]1CC2(CCC2)Oc2c(-c3ccncc3)cc(CC(C)(C)C)cc21 [Example 638]			10 to 80					HLM ([2]; human liver microsomes): 32 µL/min/mg; IC50 [4, 14]: 0.017 µM; IC50 [5, 15]: 0.006 µM; RLM ([6]; rat liver microsomes): 92 µL/min/mg; IC50 ([7]; 2D6 IC50, CYP2D6 inhibition): 3 µM
COCC(=O)N[C@@H](Cc1ccc(F)c(-c2nccs2)c1)[C@H](O)CN[C@H]1CC2(CCC2)Oc2ncc(CC(C)(C)C)cc21 [Example 650, N-((1S,2R)-3-(((4′S)-6′-(2,2-dimethylpropyl)-3′,4′-dihydrospiro[cyclobutane-1,2′-pyrano[2,3-b]pyridin]-4′-yl)amino)-1-(4-fluoro-3-(1,3-thiazol-2-yl)benzyl)-2-hydroxypropyl)-2-methoxyacetamide]								inhibition in vivo at 30 mg/kg [3, 10]: 5 to 80%
C#Cc1cccc(C[C@H](NC(=O)COC)[C@H](O)CN[C@H]2CC3(CCC3)Oc3ncc(CC(C)C)cc32)c1 [Example 756]		53	10 to 80	49		0.005		IC50 [5, 17]: 0.009 µM; IC50 [7, 13]: 1.4 µM
C#Cc1cc(F)cc(C[C@H](NC(=O)[C@@H](C)OC)[C@H](O)CN[C@H]2CC3(CCC3)Oc3ncc(CC(C)C)cc32)c1 [Example 835]		48		109		0.006		inhibition in vivo at 30 mg/kg [3, 10]: 5 to 80%; IC50 [5, 17]: 0.026 µM; IC50 [7, 13]: 2.1 µM
C#Cc1cc(C[C@H](NC(=O)C(OC)OC)[C@H](O)CN[C@H]2CC3(CCC3)Oc3ncc(CC(C)(C)C)cc32)ccc1F [Example 861]		28	≥ 50	64	2.1	0.008	0.018	
C#Cc1cccc(C[C@H](NC(=O)COCC)[C@H](O)CN[C@H]2CC3(CCC3)Oc3ncc(CC(C)(C)C)cc32)c1 [Example 870, N-((1S,2R)-3-(((4′S)-6′-(2,2-dimethylpropyl)-3′,4′-dihydrospiro[cyclobutane-1,2′-pyrano[2,3-b]pyridin]-4′-yl)amino)-1-(3-ethynylbenzyl)-2-hydroxypropyl)-2-ethoxyacetamide]			≥ 50		1.6	0.004	0.011	
C#Cc1cccc(C[C@H](NC(=O)CC)[C@H](O)CN[C@H]2CC3(CCC3)Oc3ncc(CC(C)(C)C)cc32)c1 [Example 873]		35	≥ 50	29	0.8	0.003	0.007	
CC(C)(C)Cc1cnc2c(c1)[C@@H](NC[C@@H](O)[C@H](Cc1cc(F)cc(-c3nccs3)c1)NC(=O)CF)CC1(CCC1)O2 [Example 878]	200	72		65		0.004	0.022	inhibition in vivo at 30 mg/kg ([3]; read-out: percent reduction of abeta peptide in the brain of the rat): 5 to 80%
CC(C)C(=O)N[C@@H](Cc1cc(F)cc(-c2nccs2)c1)[C@H](O)CN[C@H]1CC2(CCC2)Oc2ncc(CC(C)(C)C)cc21 [Example 883]	100	54	10 to 80	52		0.021	0.021	
COCC(=O)N[C@@H](Cc1cc(-c2nccs2)ccc1F)[C@H](O)CN[C@H]1CC2(CCC2)Oc2ncc(CC(C)(C)C)cc21 [Example 900]	≥ 27000		10 to 80		≥ 27			
CCOCC(=O)N[C@@H](Cc1cccc(-c2nccs2)c1)[C@H](O)CN[C@H]1CC2(CCC2)Oc2ncc([C@@H]3CC3(C)C)cc21 [compound 914, N-((1S,2R)-3-(((4′S)-6′-((1R)-2,2-dimethylcyclopropyl)-3′,4′-dihydrospiro[cyclobutane-1,2′-pyrano[2,3-b]pyridin]-4′-yl)amino)-2-hydroxy-1-(3-(1,3-thiazol-2-yl)benzyl)propyl)-2-ethoxyacetamide]	200	57		61	0.2	0.002	0.008	
COCC(=O)N[C@@H](Cc1cccc([C@@H]2CCCO2)c1)[C@H](O)CN[C@H]1CC2(CCC2)Oc2ncc(CC(C)(C)C)cc21 [compound 915]	600	921		590	6.8	1.96	0.562	
COCC(=O)N[C@@H](Cc1cccc([C@H]2CCCO2)c1)[C@H](O)CN[C@H]1CC2(CCC2)Oc2ncc(CC(C)(C)C)cc21 [compound 916]	400	399		644	8.1	9.5	2.25	
COCC(=O)N[C@@H](Cc1cc(F)cc(-c2nccs2)c1)C(=O)CN[C@H]1CC2(CCC2)Oc2ncc(CC(C)C)cc21 [compound 918]	100	116		128	0.5	0.0164	> 10	
